# Read-outs that look alike come from different tables or passages of the source.
# Tests used:
# Assay type in all cases: cell-based
# [1] = system: Enterobacter cloacae (ECL) isolates; assay: MIC of compounds alone and combined with antibacterials, broth microdilution (CLSI)
# Outline: (§1)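 Log-phase isolates were inoculated at a final 5.10^5 CFU/mL in cation-adjusted Mueller-Hinton broth and incubated 16-20 h at 35° C in ambient air. MIC was the lowest concentration preventing visible growth; for combinations, the antibacterial MIC was read at each compound concentration.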
# [2] = system: Providencia rettgeri (PRE) isolates; assay: as above
# Outline: as §1
# [3] = system: Proteus mirabilis (PMI) isolates; assay: microbe, parasite or virus in culture
# Protocol: (§2) Method 2: MIC of Compounds Alone and Combined with Antibacterials Against Bacterial Isolates
# Compounds of the present invention were assessed against genotyped bacterial strains (Table 3, 4) alone or in combination with an antibacterial (Table 2). […] Log phase bacterial suspensions were adjusted to a final density of 5.10^5 CFU/mL in cation-adjusted Mueller-Hinton broth (ca-MHB; Becton-Dickinson and Company) and added to each well (98 μL). Microplates were incubated for 16-20 h at 35° C. in ambient air. The MIC of the compounds was defined as the lowest concentration of said compounds that prevented bacterial growth as read by visual inspection. The MIC of ATB at each compound concentration was defined as the lowest concentration of ATB that prevented bacterial growth as read by visual inspection.
# [4] = system: Providencia stuartii (PST) isolates; assay: MIC of compounds alone and combined with antibacterials, broth microdilution (CLSI)
# Protocol: as §2
# (§3) Compounds of the present invention were assessed against genotyped bacterial strains (Table 3, 4) alone or in combination with an antibacterial (Table 2). […]. Briefly, compounds alone according to the invention were prepared in DMSO and spotted (2 μL each) on sterile polystyrene plates (Corning, 3788). Combinations of compounds and antibiotics dilutions were prepared in DMSO and spotted (1 μL each) on sterile polystyrene plates (Corning, 3788). Log phase bacterial suspensions were adjusted to a final density of 5.10^5 CFU/mL in cation-adjusted Mueller-Hinton broth (ca-MHB; Becton-Dickinson and Company) and added to each well (98 μL). Microplates were incubated for 16-20 h at 35° C. in ambient air. The MIC of the compounds was defined as the lowest concentration of said compounds that prevented bacterial growth as read by visual inspection. The MIC of ATB at each compound concentration was defined as the lowest concentration of ATB that prevented bacterial growth as read by visual inspection.
# [5] = system: Salmonella typhimurium (STY) isolates; assay: as above
# Protocol: as §2, §3
# [6] = Proteus mirabilis, strain PMI UFR82, genotype CMY-2, read-out: MIC
# [7] = Proteus mirabilis, strain PMI UFR122, genotype TEM-1, CTX-M-15, read-out: MIC
# [8] = Proteus mirabilis, strain PMI UFR130, genotype CMY-2, read-out: MIC
# [9] = Providencia stuartii, strain PST UFR94, genotype CTX-M-14, read-out: MIC
# [10] = Providencia stuartii, strain PST UFR95, genotype TEM-24, read-out: MIC
# [11] = Providencia stuartii, strain PST UFR235, genotype VEB-1, read-out: MIC
# [12] = Salmonella enterica, TYPHIMURIUM
smiles,measurement,setting,value
"C=CC1=C(C(=O)O)N2C(=O)[C@@H](NC(=O)/C(=N\O)c3csc(N)n3)[C@H]2SC1 [CDR, Cefdinir]",MIC,"[1]; Enterobacter cloacae, strain ECL 2185D, genotype OXA-163",> 256 µg/mL
same,MIC,"[1]; Enterobacter cloacae, strain ECL 190310, genotype AmpC",> 256 µg/mL
same,MIC,"[1]; Enterobacter cloacae, strain ECL 190408, genotype TEM-1, CTX-M-15, OXA-1",> 256 µg/mL
same,MIC,"[1]; Enterobacter cloacae, strain ECL 200138, genotype AmpC",> 256 µg/mL
same,MIC,"[1]; Enterobacter cloacae, strain ECL 200322, genotype TEM-1, CTX-M-15, OXA-1",> 256 µg/mL
same,MIC,"[1]; Enterobacter cloacae, strain ECL 260033, genotype AmpC",> 256 µg/mL
same,MIC,"[1]; Enterobacter cloacae, strain ECL 260253, genotype TEM-1, KPC-3",> 256 µg/mL
same,MIC,"[1]; Enterobacter cloacae, strain ECL 260323, genotype AmpC, read-out: MIC",256 µg/mL
same,MIC,"[1]; Enterobacter cloacae, strain ECL 260508, genotype TEM-1, CTX-M-15",> 256 µg/mL
same,MIC,"[1]; Enterobacter cloacae, strain ECL NEM146383, genotype AmpC",> 256 µg/mL
same,MIC,"[1]; Enterobacter cloacae, strain ECL P99, genotype AmpC",> 256 µg/mL
same,MIC,"[1]; Enterobacter cloacae, strain ECL UFR12, genotype CTX-M-9, OXA-48",> 256 µg/mL
same,MIC,"[1]; Enterobacter cloacae, strain ECL UFR13, genotype TEM-1, SHV-12, CTX-M-9, OXA-48",> 256 µg/mL
same,MIC,"[1]; Enterobacter cloacae, strain ECL UFR14, genotype TEM-1, SHV-12, CTX-M-15, DHA-1, OXA-1, OXA-48",> 256 µg/mL
same,MIC,"[1]; Enterobacter cloacae, strain ECL UFR60, genotype TEM-1, CTX-M-15, KPC-2",> 256 µg/mL
same,MIC,"[1]; Enterobacter cloacae, strain ECL UFR70, genotype TEM-1, CTX-M-15, CMY-2, OXA-1, Porin loss",> 256 µg/mL
same,MIC,"[1]; Enterobacter cloacae, strain ECL UFR84, genotype TEM-1, AmpC, OXA-1",> 256 µg/mL
same,MIC,"[1]; Enterobacter cloacae, strain ECL UFR85, genotype TEM-1, CTX-M-15, AmpC",> 256 µg/mL
same,MIC,"[1]; Enterobacter cloacae, strain ECL UFR194, genotype OXA-48",> 256 µg/mL
same,MIC,"[1]; Enterobacter cloacae, strain ECL UFR195, genotype TEM-1, CTX-M-15, OXA-1, OXA-48",> 256 µg/mL
same,MIC,"[1]; Enterobacter cloacae, strain ECL UFR196, genotype TEM-1, CTX-M-15, OXA-1, OXA-48",> 256 µg/mL
same,MIC,"[1]; Enterobacter cloacae, strain ECL UFR197, genotype TEM-1, CTX-M-15, OXA-1, OXA-48",> 256 µg/mL
same,MIC,"[1]; Enterobacter cloacae, strain ECL UFR198, genotype TEM-1, SHV-12, CTX-M-15, DHA-1, OXA-1, OXA-48",> 256 µg/mL
same,MIC,"[1]; Enterobacter cloacae, strain ECL UFR200, genotype TEM-1, SHV-12, KPC-2",> 256 µg/mL
same,MIC,"[2]; Providencia rettgeri, strain PRE UFR99, genotype OXA-1, OXA-181",> 256 µg/mL
same,MIC,"[2]; Providencia rettgeri, strain PRE UFR236, genotype TEM-1, OXA-48",> 256 µg/mL
same,MIC,[3]; [6],16 µg/mL
same,MIC,"[3]; Proteus mirabilis, strain PMI UFR120, genotype TEM-1, SHV-11, CTX-M-14, read-out: MIC",64 µg/mL
same,MIC,"[3]; Proteus mirabilis, strain PMI UFR121, genotype TEM-1, TEM-52",> 256 µg/mL
same,MIC,[3]; [7],16 µg/mL
same,MIC,"[3]; Proteus mirabilis, strain PMI UFR123, genotype CTX-M-1",> 256 µg/mL
same,MIC,"[3]; Proteus mirabilis, strain PMI UFR124, genotype CTX-M-2",> 256 µg/mL
same,MIC,"[3]; Proteus mirabilis, strain PMI UFR125, genotype CTX-M-71, read-out: MIC",256 µg/mL
same,MIC,"[3]; Proteus mirabilis, strain PMI UFR126, genotype TEM-2, PER-1",> 256 µg/mL
same,MIC,"[3]; Proteus mirabilis, strain PMI UFR127, genotype VEB-1",> 256 µg/mL
same,MIC,"[3]; Proteus mirabilis, strain PMI UFR129, genotype TEM-1, VEB-6",> 256 µg/mL
same,MIC,[3]; [8],16 µg/mL
same,MIC,"[3]; Proteus mirabilis, strain PMI UFR237, genotype VEB-6",> 256 µg/mL
same,MIC,[4]; [9],64 µg/mL
same,MIC,[4]; [10],32 µg/mL
same,MIC,[4]; [11],256 µg/mL
same,MIC,[5]; [12],0.5 µg/mL
"CO/N=C(\C(=O)N[C@@H]1C(=O)N2C(C(=O)O)=C(COC(N)=O)CS[C@H]12)c1ccco1 [FUR, Cefuroxime]",MIC,"[1]; strain ECL 2185D, genotype OXA-163",>256 µg/mL
same,MIC,"[1]; strain ECL 190310, genotype AmpC",>256 µg/mL
same,MIC,"[1]; strain ECL 190408, genotype TEM-1, CTX-M-15, OXA-1",>256 µg/mL
same,MIC,"[1]; strain ECL 200138, genotype AmpC",>256 µg/mL
same,MIC,"[1]; strain ECL 200322, genotype TEM-1, CTX-M-15, OXA-1",>256 µg/mL
same,MIC,"[1]; strain ECL 260033, genotype AmpC",>256 µg/mL
same,MIC,"[1]; strain ECL 260253, genotype TEM-1, KPC-3",>256 µg/mL
same,MIC,"[1]; strain ECL 260323, genotype AmpC",>256 µg/mL
same,MIC,"[1]; strain ECL 260508, genotype TEM-1, CTX-M-15",>256 µg/mL
same,MIC,"[1]; strain ECL NEM146383, genotype AmpC",>256 µg/mL
same,MIC,"[1]; strain ECL P99, genotype AmpC",>512 µg/mL
same,MIC,"[1]; strain ECL UFR12, genotype CTX-M-9, OXA-48",>256 µg/mL
same,MIC,"[1]; strain ECL UFR13, genotype TEM-1, SHV-12, CTX-M-9, OXA-48",>256 µg/mL
same,MIC,"[1]; strain ECL UFR14, genotype TEM-1, SHV-12, CTX-M-15, DHA-1, OXA-1, OXA-48",>256 µg/mL
same,MIC,"[1]; strain ECL UFR60, genotype TEM-1, CTX-M-15, KPC-2",>256 µg/mL
same,MIC,"[1]; strain ECL UFR70, genotype TEM-1, CTX-M-15, CMY-2, OXA-1, Porin loss",>256 µg/mL
same,MIC,"[1]; strain ECL UFR84, genotype TEM-1, AmpC, OXA-1",>256 µg/mL
same,MIC,"[1]; strain ECL UFR85, genotype TEM-1, CTX-M-15, AmpC",>256 µg/mL
same,MIC,"[1]; strain ECL UFR194, genotype OXA-48",32 µg/mL
same,MIC,"[1]; strain ECL UFR195, genotype TEM-1, CTX-M-15, OXA-1, OXA-48",>256 µg/mL
same,MIC,"[1]; strain ECL UFR196, genotype TEM-1, CTX-M-15, OXA-1, OXA-48",>256 µg/mL
same,MIC,"[1]; strain ECL UFR197, genotype TEM-1, CTX-M-15, OXA-1, OXA-48",>256 µg/mL
same,MIC,"[1]; strain ECL UFR198, genotype TEM-1, SHV-12, CTX-M-15, DHA-1, OXA-1, OXA-48",>256 µg/mL
same,MIC,"[1]; strain ECL UFR200, genotype TEM-1, SHV-12, KPC-2",>256 µg/mL
same,MIC,"[2]; strain PRE UFR99, genotype OXA-1, OXA-181",>256 µg/mL
same,MIC,"[2]; strain PRE UFR236, genotype TEM-1, OXA-48",64 µg/mL
same,MIC,"[3]; strain PMI UFR82, genotype CMY-2",16 µg/mL
same,MIC,"[3]; strain PMI UFR120, genotype TEM-1, SHV-11, CTX-M-14",>256 µg/mL
same,MIC,"[3]; strain PMI UFR121, genotype TEM-1, TEM-52",>256 µg/mL
same,MIC,"[3]; strain PMI UFR122, genotype TEM-1, CTX-M-15",>256 µg/mL
same,MIC,"[3]; strain PMI UFR123, genotype CTX-M-1",>256 µg/mL
same,MIC,"[3]; strain PMI UFR124, genotype CTX-M-2",>256 µg/mL
same,MIC,"[3]; strain PMI UFR125, genotype CTX-M-71",>256 µg/mL
same,MIC,"[3]; strain PMI UFR126, genotype TEM-2, PER-1",>256 µg/mL
same,MIC,"[3]; strain PMI UFR127, genotype VEB-1",>256 µg/mL
same,MIC,"[3]; strain PMI UFR129, genotype TEM-1, VEB-6",>256 µg/mL
same,MIC,"[3]; strain PMI UFR130, genotype CMY-2",8 µg/mL
same,MIC,"[3]; strain PMI UFR237, genotype VEB-6",>256 µg/mL
same,MIC,"[4]; strain PST UFR94, genotype CTX-M-14",>256 µg/mL
same,MIC,"[4]; strain PST UFR95, genotype TEM-24",128 µg/mL
same,MIC,"[4]; strain PST UFR235, genotype VEB-1",256 µg/mL
same,MIC,"[5]; strain STY S3371, genotype OXA-1",32 µg/mL
"COCC1=C(C(=O)O)N2C(=O)[C@@H](NC(=O)/C(=N\OC)c3csc(N)n3)[C@H]2SC1 [POD, Cefpodoxime]",MIC,"[1]; Enterobacter cloacae, strain ECL P99, genotype AmpC, read-out: MIC",> 512 µg/mL
same,MIC,"[1]; Enterobacter cloacae, strain ECL UFR12, genotype CTX-M-9, OXA-48, read-out: MIC",128 µg/mL
same,MIC,"[1]; Enterobacter cloacae, strain ECL UFR194, genotype OXA-48, read-out: MIC",16 µg/mL
same,MIC,"[2]; Providencia rettgeri, strain PRE UFR236, genotype TEM-1, OXA-48, read-out: MIC",64 µg/mL
same,MIC,[3]; [6],64 µg/mL
same,MIC,[3]; [7],64 µg/mL
same,MIC,"[3]; Proteus mirabilis, strain PMI UFR127, genotype VEB-1, read-out: MIC",128 µg/mL
same,MIC,[3]; [8],128 µg/mL
same,MIC,[4]; [9],32 µg/mL
same,MIC,[4]; [10],16 µg/mL
same,MIC,[4]; [11],128 µg/mL
same,MIC,[5]; [12],4 µg/mL

# Reference: patent US20200017495A1, “NOVEL HETEROCYCLIC COMPOUNDS AND THEIR USE IN PREVENTING OR TREATING BACTERIAL INFECTIONS” (priority 2017, published 2020)
